Read-outs that look alike come from different tables or passages of the source.
Legend:
DGK isoforms = system: DGK isoforms; set-up: method as in PMID 10718334, PMID 23949095; conditions: cited from earlier work
XLP-1 model = conditions: cited from earlier work
[1] = set-up: method as in PMID 26420856; conditions: mice, rapid clearance; cited from earlier work
DGKα [2] = target: T1, DGKα (Homo sapiens, UniProt P23743); experiment: DGK assay on OST-DGKα enriched MDCK homogenates; type: biochemical; set-up: expressed in transfected cells; host or cells: MDCK cells (vector-infected, doxycycline-induced), crude homogenate; conditions: for remaining activity at 100 µM: percentage of residual DGKα activity compared to DMSO control, OST-DGKα overexpressing cell lysates, saturating DAG and ATP, read-out: Residue activity at 100 µM
Procedure: Madin-Darby canine kidney (MDCK) cells stably expressing One Strep Tag DGKα (OST-DGKα) were prepared by infecting MDCK cells with a vector expressing an inducible OST tagged DGKα constructs. MDCK cells infected with empty vector were used as controls. MDCK cells were cultured in MEM (minimal essential medium) with 5% FBS (foetal bovine serum) and 1% antibiotic–antimycotic solution. Routinely, cells were splitted every 3–4 days with trypsin–EDTA 0.25% in standard 100 mm dishes.
Large cultures of MDCK cells for enzyme preparation were done by plating 5 × 10^6 cells in 245 mm^2 dishes. Once they reached nearly 70% confluence, cells were treated with doxycycline (1 µg/mL, two days). […] Cells were collected with a rubber scraper, homogenised by passing them through a 29 G-needle syringe 20 times and stored in aliquots at –80 °C. Presence of OST-DGKα was confirmed by western blotting and enzyme assay, transduced DGKα has an activity >100 folds the endogenous DGK.
Essentionally, the same procedure was followed as reported previously in Velnati et al.[9] In brief, DGK activity was assayed by measuring initial velocities (5 min at 27 °C) in presence of saturating substrate concentrations. Reaction conditions: 0.9 µg/µL 1,2-dioleoyl-sn-glycerol, 5 mM ATP, 0.01 µCi/µL [γ^32P]-ATP, 1 mM sodium orthovanadate, 10 mM MgCl2, 1.2 mM EGTA in 7.5 mM Hepes pH 8[12]. Reaction mixture is assembled mixing enzyme (24.5 µL of homogenate), 100× inhibitor or DMSO (0.5 µL), 5× ATP solution (10 µL of 25 mM ATP, 0.05 µCi/µL [γ^32P]-ATP (Perkin-Elmer, Milan, Italy), 5 mM sodium orthovanadate, 50 mM MgCl2), and 3.3× DAG solution (15 µL of 3 µg/µL 1,2-dioleoyl-sn-glycerol resuspended by sonication in 4 mM EGTA in 25 mM Hepes pH 8). The reaction was stopped after 5 min by adding 200 µL of freshly prepared 1 M HCl and lipid was extracted by adding 200 µL of CH3OH:CHCl3 1:1 solution and vortexing for 1 min. The two phases were separated by centrifugation (12,000 RCF for 2 min). Twenty-five microlitres of the lower organic phase was spotted in small drops on silica TLC plates. TLC was run 10 cm and dried before radioactive signals were detected by GS-250 molecular imager and was quantified by quantity one (Bio-Rad, Hercules, CA) software assuring the absence of saturated spots.
Percentage residual activity was calculated as follows: (OST-DGKα homogenate with inhibitor – vector homogenate)/(OST-DGKα homogenate with DMSO – vector homogenate)×100.
Data for the screen on OST-DGKα homogenates are the mean of duplicates. The compounds showing inhibitory activity in this assay were tested >4 times and the mean ± SEM is reported.
To calculate IC50 values of active inhibitors, the inhibitor activity was measured at least three times at 0.1, 1.0, 10.0, and 100.0 µM concentration. Data were analysed using [inhibitor] vs. normalised response parameters with least square [ordinary] curve fitting method in GraphPad PRISM 8.0 software (GraphPad Software, La Jolla, CA) mentioning 95% confidence interval and IC50 values always greater than 0.0. […] In all the experiments, the data were normalised with the controls.
Each inhibitor was tested in duplicate at least once, and DGKα activity was expressed as percentage of residual DGKα activity compared to DMSO control in the same assay. Assay uses OST-DGKα overexpressing cell lysates in presence of saturating exogenous DAG and ATP. We considered R59022 (commercially available) and the lead compound Amb63975230 as our reference molecules.
To measure the inhibitor potency, we determined the IC50 values for the compounds that resulted active when tested at 100 µM by measuring the residual OST-DGKα activity over a dose range of inhibitor concentrations (0.1 µM, 1.0 µM, 10.0 µM, and 100.0 µM).

[3] = system: T cells from XLP-1 patients; set-up: method as in PMID 26764158; conditions: pre-treatment with inhibitor; cited from earlier work
5HT2A = system: 5HT2A; set-up: method as in PMID 27974147; conditions: antagonistic activity on 5-HT2 receptors; cited from earlier work
DGKα [4] = target: T1, DGKα; set-up: expressed in transfected cells; host or cells: MDCK cells (vector-infected, doxycycline-induced), crude homogenate; method as in PMID 30611057; conditions: in our assay system; cited from earlier work
SAP-deficient T cells = experiment: RICD assay in SAP silenced T cells; type: cell-based, human; conditions: 10 µM, 30 min pre-treatment; OKT3 10 ng/mL, 24 h; SAP siRNA
Procedure: PBL were isolated from healthy anonymous human donors by Ficoll-Paque PLUS (GE Healthcare, Chicago, IL) density gradient centrifugation, washed, and resuspended at 2 × 10^6 cell/mL in RPMI-GlutaMAX containing 10% heat inactivated FCS, 2 mM glutamine, and 100 U/mL of penicillin and streptomycin. T cells were activated with 1 µg/mL anti-CD3 (UCHT1) and anti-CD28 (clone CD28.2) antibodies. After three days, activated T cells were washed and cultured in medium additionated of 100 IU/mL rhIL-2 (Peprotech, Rocky Hill, NJ) at 1.2 × 10^6 cells/mL for ≥7 days by changing media for every 2–3 days.
Activated human PBLs were transfected with 200 pmol of siRNA oligonucleotides specific for the target protein (Stealth Select siRNA; Life Technologies, Carlsbad, CA) or a non-specific control oligo (Life Technologies, Carlsbad, CA). Transient transfections were performed using Amaxa nucleofector kits for human T cells (Lonza, Basel, Switzerland) and the Amaxa Nucleofector II or 4D systems (programmes T-20 or EI-115). Cells were cultured in IL-2 (100 IU/mL) for four days to allow target gene knockdown. Knockdown efficiency was periodically evaluated by Western blotting.
To test restimulation induced cell death, activated T cells (10^5 cells/well) were plated in triplicate in 96-well round-bottom plate and treated with anti-CD3 (clone OKT3) (10 ng/mL) in RPMI-GlutaMAX supplemented with 100 IU/mL rhIL-2 for 24 h. In these assays, inhibitors (10 µM) were added 30 min before the restimulation with OKT3. 24 h after treatment, cells were stained with 20 ng/mL propidium iodide and collected for a constant time of 30 s per sample on Attune Nxt Flow Cytometer (Thermo Fisher Scientific, Waltham, MA). Cell death is expressed as % cell loss and calculated as: % cell loss=(1−(number of viable cells in sample/number of viable cells in control)×100)
Results were expressed as mean ± standard error of the mean (SEM). We always compared controls and SAP silenced lymphocytes from the same donors as there is a large individual variability in RICD sensitivity.
To evaluate inhibitor efficacy in physiological context, we modelled XLP-1 by silencing SAP in primary peripheral blood T lymphocytes (PBLs) and restimulating them with anti-CD3 antibody (OKT3 10 ng/mL, 24 h). We pre-treated the cells with the indicated inhibitors for 30 min at a concentration of 10 µM[8].
Figure 9. DGKα inhibitors partially restores apoptosis in SAP deficient lymphocytes. […] After 4 days, the cells were restimulated with CD3 agonist OKT3 (10 ng/mL) in presence of respective inhibitor. Vehicle (DMSO) was used as control. Twenty-four hours later, the % of cell loss was evaluated by PI staining. Data are the mean ± SEM of nine independent experiments performed in triplicate.

serotonin receptors [5] = experiment: Superoxide anion production: serotonin effect on PMA-induced oxidative burst in monocytes; type: cell-based; conditions: drugs 10 µM, 1 h; serotonin 1 µM; PMA 1 µM 30 min; human monocytes
Procedure: Human monocytes were isolated from healthy anonymous human buffy coats (provided by the Transfusion Service of Ospedale Maggiore della Carità, Novara, Italy) by the standard technique of dextran sedimentation and Histopaque (density = 1.077 g cm^3, Sigma-Aldrich, Milano, Italy) gradient centrifugation (400×g, 30 min, room temperature) and recovered by fine suction at the interface, as described previously. Purified monocytes populations were obtained by adhesion (90 min, 37 °C, 5% CO2) in serum-free RPMI 1640 medium (Sigma-Aldrich, Milano, Italy) supplemented with 2 mM glutamine and antibiotics. Cell viability (trypan blue dye exclusion) was usually >98%.
All the experiments were performed in triplicate using cells isolated from each single donor.
Monocytes (250,000 cells/well) were treated for 1 h with the indicated drugs (10 µM) with or without serotonin (1 µM). Then, cells were stimulated with phorbol 12-myristate 13-acetate (PMA; Sigma-Aldrich, Milano, Italy) 1 µM for 30 min. PMA is a well-known stimulus that induces a strong and significant respiratory burst via PKC activation. Superoxide anion production was then evaluated by the superoxide dismutase (SOD)-sensitive cytochrome C (CytC) reduction assay and expressed as nmoles CytC reduced/10^6 cells/30 min, using an extinction coefficient of 21.1 mM. To avoid interference with spectrophotometrical recordings, cells were incubated with RPMI 1640 without phenol red, antibiotics, and FBS.
To this purpose, we measured the effect of serotonin on PMA-induced oxidative burst in human monocytes. As previously shown, 1 µM serotonin reverses the oxidative burst to control values.
Figure 8. […] Results are expressed as n moles of reduced cytochrome C/10^6 cells. Data are means ± SEM of 10 independent experiments performed in triplicate.

dopaminergic receptors = target: dopaminergic receptors; set-up: method as in PMID 2860558; conditions: cited from earlier work
[6] = set-up: method as in PMID 27974147; conditions: in human; cited from earlier work
serotonin receptors [7] = conditions: read-out: IC50 as serotonin antagonist; cited from earlier work

T1 sequence (P23743 whole entry): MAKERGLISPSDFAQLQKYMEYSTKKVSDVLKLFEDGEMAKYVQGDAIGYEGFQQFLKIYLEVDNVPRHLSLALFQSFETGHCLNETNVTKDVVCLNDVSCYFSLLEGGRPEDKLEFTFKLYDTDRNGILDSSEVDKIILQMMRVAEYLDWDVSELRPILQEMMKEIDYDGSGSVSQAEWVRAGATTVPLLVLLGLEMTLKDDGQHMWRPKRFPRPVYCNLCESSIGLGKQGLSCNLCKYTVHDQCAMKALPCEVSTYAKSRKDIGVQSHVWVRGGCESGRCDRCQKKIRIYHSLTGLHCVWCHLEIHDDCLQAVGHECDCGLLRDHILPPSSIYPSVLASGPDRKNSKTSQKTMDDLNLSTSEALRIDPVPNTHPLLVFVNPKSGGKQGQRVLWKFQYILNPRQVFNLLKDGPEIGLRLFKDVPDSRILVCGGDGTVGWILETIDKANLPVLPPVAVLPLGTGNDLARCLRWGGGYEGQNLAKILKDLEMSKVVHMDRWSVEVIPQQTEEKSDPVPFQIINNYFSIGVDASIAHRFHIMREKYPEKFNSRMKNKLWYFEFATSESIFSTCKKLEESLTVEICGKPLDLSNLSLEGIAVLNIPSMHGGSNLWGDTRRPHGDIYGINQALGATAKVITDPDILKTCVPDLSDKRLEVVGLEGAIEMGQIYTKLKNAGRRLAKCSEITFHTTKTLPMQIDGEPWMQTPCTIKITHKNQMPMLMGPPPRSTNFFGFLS

| effect on serotonin action on PMA-induced oxidative burst (serotonin receptors [5]) | SMILES | DGK isoforms targeted (DGK isoforms) | effect in an in vivo model of XLP-1 (XLP-1 model) | t1/2 [1] | inhibition at 100 µM (DGKα [2]; 100 µM) | remaining activity at 100 µM (DGKα [2]; 100 µM) | IC50 (DGKα [2]; residual OST-DGKα activity at 0.1, 1.0, 10.0 and 100.0 µM) | rescue of defective RICD in T cells from XLP-1 patients [3] | IC50 (5HT2A) | IC50 (DGKα [4]) | rescue of RICD (apoptosis) in SAP-deficient T cells (SAP-deficient T cells) | IC50 (dopaminergic receptors) | t1/2 [6] | IC50 (serotonin receptors [7]) |
| --- | --- | --- | --- | --- | --- | --- | --- | --- | --- | --- | --- | --- | --- | --- |
| – | Cc1nc2sccn2c(=O)c1CCN1CCC(=C(c2ccccc2)c2ccc(F)cc2)CC1 [Compound R59022] | type III and V (ε e θ) | beneficial effects | ~2 h | 73% | 27% | 15.2 ± 5.8 µM | rescued | 2.2 nM | – | – | – | – | – |
| – | O=c1c2ccccc2[nH]c(=S)n1CCN1CCC(=C(c2ccc(F)cc2)c2ccc(F)cc2)CC1 [Compound R59949, 3-[2-(4-[bis-(4-fluorophenyl)methylene]-1-piperidinyl)ethyl]-2,3-dihydro-2-thioxo-4(1h)quinazolinone] | type I and II (γ, δ e κ) | – | ~2 h | – | 28% | – | rescued | 9.2 nM | 11 µM | – | – | – | – |
| impaired serotonin action | O=C(c1ccc(F)cc1)C1CCN(CCn2c(=O)[nH]c3ccccc3c2=O)CC1 [ketanserin, reference compound] | – | – | – | – | – | – | – | – | – | inactive | – | – | – |
| impaired serotonin action | Cc1nc2sccn2c(=O)c1CCN1CCC(=C(c2ccc(F)cc2)c2ccc(F)cc2)CC1 [ritanserin] | – | – | – | – | – | – | – | – | 17 µM | – | 69 nM | 40 h | 0.9 nM |
